Ki and Activity data for eight compounds are collected here from ChEMBL document CHEMBL4359874, “Synthesis of novel tellurides bearing benzensulfonamide moiety as carbonic anhydrase inhibitors with antitumor activity” (Eur J Med Chem, 2019).

Activity calls are given as the source filed them. The rule behind the calls is not given here.

One assay addresses Carbonic anhydrase 9 (Homo sapiens, UniProt Q16790). The assay is described as follows: Inhibition of recombinant human carbonic anhydrase 9 preincubated for 15 mins by phenol red dye based stopped flow CO2 hydration assay.
Assay [1] concerns MDA-MB-231. The assay is described as follows: Cytotoxicity against human MDA-MB-231 cells assessed as reduction in cell viability at 3 uM after 48 hrs under normoxia condition by MTT assay relative to control. The format is functional. A general note: Tetrazolium dyes change colour on reduction, which living cells bring about.
For assay [2], the system named is MDA-MB-231. The assay is described as follows: Cytotoxicity against human MDA-MB-231 cells assessed as reduction in cell viability at 10 uM after 48 hrs under normoxia condition by MTT assay. The assay is classed as functional, cell-based.
Assay [3] deals with MDA-MB-231. The assay is described as follows: Cytotoxicity against human MDA-MB-231 cells assessed as reduction in cell viability at 3 uM after 48 hrs under hypoxia condition by MTT assay relative to control. The assay is classed as functional.
The test system of assay [4] is MDA-MB-231. The assay is described as follows: Cytotoxicity against human MDA-MB-231 cells assessed as reduction in cell viability at 30 uM after 48 hrs under hypoxia condition by MTT assay relative to control. The format is functional.
The subject of assay [5] is MDA-MB-231. The assay is described as follows: Cytotoxicity against human MDA-MB-231 cells assessed as reduction in cell viability at 3 to 10 uM after 48 hrs under normoxia condition by MTT assay. The format is functional, cell-based.

Take `COc1ccc([Te]CC(O)COc2ccc(S(N)(=O)=O)cc2)cc1` (centres undefined): the Ki on Carbonic anhydrase 9 amounted to 7.8 nM. Regarding `Cc1ccccc1[Te]CC(O)COc1ccc(S(N)(=O)=O)cc1` (centres undefined), on Carbonic anhydrase 9, the inhibitory constant (Ki) turned out to be 9.5 nM. Moreover, the values for the Activity in the assay on MDA-MB-231 [1], in the assay on MDA-MB-231 [3] and in the assay on MDA-MB-231 [4] were >50%, 32% and >50%, respectively. The result with MDA-MB-231 [2] was Active. Consider `NS(=O)(=O)c1ccc(OCC(O)C[Te]CC(O)COc2ccc(S(N)(=O)=O)cc2)cc1` (centres undefined), for which the Ki at Carbonic anhydrase 9 was determined as 809 nM.

For `NS(=O)(=O)c1ccc(OCC(O)C[Te]c2ccc3ccccc3c2)cc1` (centres undefined), at Carbonic anhydrase 9, the inhibitory constant (Ki) was determined as 6.4 nM. The Activity in the assay on MDA-MB-231 [4] stood at 90%. The outcome with MDA-MB-231 [5] was Active. For the compound `NS(=O)(=O)c1ccc(OCC(O)C[Te]c2ccccc2)cc1` (centres undefined), at Carbonic anhydrase 9, the inhibition constant Ki worked out at 14.8 nM. Same read-out and setting: the same measure for `CC[Te]CC(O)COc1ccc(S(N)(=O)=O)cc1` (centres undefined): 40.7 nM. With `CCCC[Te]CC(O)COc1ccc(S(N)(=O)=O)cc1` (centres undefined), on Carbonic anhydrase 9, the Ki came to 333 nM. `Cc1ccc([Te]CC(O)COc2ccc(S(N)(=O)=O)cc2)cc1` (centres undefined): the Ki on Carbonic anhydrase 9 turned out to be 118 nM.

In general, Ki refers to a dissociation constant, usually derived from enzyme kinetics or from competition with a known ligand.
